“Also recorded” adds a separate entry of the source. Where two headings read alike, the source gives them in different places. Non-standard residues stand in square brackets, D forms with d. Residues, ends and D or L forms follow the SMILES beside them. *: point of attachment. Dolaproine = CO[C@@H]([C@@H]1CCCN1)[C@@H](C)C(=O)O; Dil = CC[C@H](C)[C@H](NC)[C@@H](CC(=O)O)OC; X1 = C[C@@H](N*)[C@@H](O)c1ccccc1; NMeV = CN[C@H](C(=O)O)C(C)C
Assays:
HCT-116 cells [1] = assay: Alamar Blue cell viability assay; assay type: cell-based, Human
Description: Alamar Blue (also known as resazurin) was added to the cells and allowed to incubate for 2 hrs at 37° C. Plates were analyzed using a plate reader with fluorescence measured at 560 nm. For irradiated cells, cells were treated with MMAE overnight followed by 6 Gy.
(§1) Alamar Blue (resazurin) was added to the cells and allowed to incubate for 2 hrs at 37° C. Plates were analyzed using a plate reader with fluorescence measured at 560 nm.
Cells were plated in 96-well plates and exposed to MMAE or paclitaxel for 72 hours and analyzed at 560 nm. For irradiated cells, cells were treated with MMAE overnight followed by 6 Gy.

LN-229 cells = assay: Alamar Blue cell viability assay; assay type: cell-based; conditions: 72 hours
Description: as §1

PANC-1 cells [2] = assay: Clonogenic survival assay with IR; assay type: cell-based, Human
Description: (§2) Cells were treated with 0, 1, 2, or 5 nM of MMAE for 24 hours and then irradiated with 0, 2, or 6 Gy. Following IR, cells were counted, re-plated at varying cell numbers in drug free media. Colonies were counted […]. Colonies were then fixed and stained with crystal violet to quantify colonies.
(§3) Cells were treated with MMAE for 24 hours and then irradiated with 0 to 8 Gy. Following IR, cells were replated in drug-free media. Colonies formed over 10 to 14 days and were counted.

HCT-116 cells [3] = assay: Clonogenic survival assay with IR; assay type: cell-based, Human
Description: as §2, §3

PANC-1 tumor xenografts = assay: In vivo tumor xenograft growth with or without IR; parameters: species or system mice
Description: HCT-116 or PANC-1 tumor xenografts were established and tumor growth was measured with digital calipers. Tumor volume was calculated using the formula as ½*Length*Width^2. Mice were randomized into groups once the average tumor volume reached 250 mm^3. Mice were assigned to groups: Vehicle, ACPP-cRGD-MMAE, fractionated IR or the combination. ACPP-cRGD-MMAE lyophilized powder was suspended in sterile deionized water just prior to tail vein injection. MMAE doses and IR fractionation are as indicated in the Results.
HCT-116 or PANC-1 tumor growth was measured with digital calipers. Tumor volume was calculated using the formula as ½×length×width^2. Mice were randomized into groups as indicated in Results once the average tumor volume reached >200 mm^3. Free MMAE was injected on an equimolar basis to ACPP-cRGD-MMAE.

CAL-27 tumor xenografts = assay: In vivo tumor xenograft growth with or without IR; parameters: species or system mice; conditions: day 0 iv: 0.5 nmoles antibody or 2 nmoles free MMAE; no IR
Description: CAL-27 tumor xenografts were established and tumor growth was measured with digital calipers. Tumor volume was calculated using the formula as ½*Length*Width^2. Mice were randomized into groups once the average tumor volume reached >150 mm^3. Mice were assigned to indicated groups in the Results. […] Free MMAE was injected on an equimolar basis to ACPP-cRGD-MMAE in final volume of 3% DMSO. MMAE doses and IR fractionation are as indicated in the Results.

CHK1 (pS345) = assay: Immunoblot for DNA damage checkpoint activation in HCT-116 cells; assay type: cell-based, Human; conditions: MMAE 24 hours, then 6 Gy
Description: (§4) MMAE- and IR-treated cells were harvested and lysed in RIPA buffer with protease and phosphatase inhibitors (Roche). Thirty micrograms of lysate underwent electrophoresis using 4% to 12% Bis-Tris gels (Life Technologies), transferred to polyvinylidene difluoride (PVDF) membranes, and incubated with indicated primary antibodies (Cell Signaling Technology). Blots were developed by ECL (Pierce).
(§5) Because MMAE reduced clonogenic cell survival following IR, we tested whether MMAE increased apoptosis in irradiated cells. HCT-116 cells were treated with MMAE for 24 hours followed by IR. Cells were collected 24 hours after IR and the sub-G1 population (apoptotic) was measured. […] Because MMAE increased DNA double-strand breaks in irradiated cells (FIG. 34), we then evaluated whether MMAE altered the DNA damage response in irradiated cells. HCT-116 cells were treated with MMAE for 24 hours followed by 6 Gy. Cells were collected 1 hour after IR, and activation of the DNA damage checkpoint proteins CHK1 (pS345) and CHK2 (pT68) was ascertained (FIG. 36B). […] Upon DNA damage, histone H2A becomes phosphorylated at S139, γH2AX.

cyclin B = assay: Immunoblot for cell phase-specific cyclins in HCT-116 cells; assay type: cell-based, Human; conditions: 5 nmol/L MMAE, 24-hour exposure
Description: as §4
Because MMAE blocks cells in the radiosensitive G2-M phase of the cell cycle, we tested whether MMAE specifically interacted with IR. We hypothesized that while a short exposure to MMAE would not influence radiosensitivity, prolonged MMAE exposure with cells accumulating in G2-M would increase sensitivity to IR. DNA double-stand breaks are a hallmark of IR damage and can be measured by neutral comet assay. HCT-116 cells were treated with 5 nmol/L MMAE for varying lengths of time (0, 2, 4, or 24 hours) and then irradiated (FIG. 34A).

HCT-116 cells [4] = assay: Apoptosis (sub-G1 population) after MMAE and IR; assay type: cell-based, Human
Description: Cells were treated with MMAE for 24 hours and then fixed in methanol. Cells were treated with RNAse, stained with propidium iodide (PI), and analyzed by FACS using FlowJo software.
as §5

PANC-1 cells [5] = assay: γH2Ax immunostaining (foci formation); assay type: cell-based, Human
Description: (§6) Cells were grown on glass cover slips were treated with indicated concentrations of MMAE overnight and then irradiated. Two hours post IR, cells were fixed in 4% paraformaldehyde. Samples were then permeabilized in 0.25% Triton X-100, blocked in 1% BSA, incubated with antibody to γH2Ax for 1 hr at room temperature, washed, and incubated in secondary antibody for 1 hour at room temperature. Samples were incubated for 1 minute in a 1:5000 dilution of DAPI to label nuclei. The number of foci per cell was counted. 6-8 high power fields were counted per each group.
(§7) Cells grown on glass coverslips were treated with MMAE overnight and then irradiated. Two hours after IR, cells were fixed, permeabilized, and stained with antibody to […]. Nuclei were stained with 4′,6-diamidino-2-phenylindole (DAPI). Foci were counted in 6 to 8 high-power fields per group.

HCT-116 cells [6] = assay: γH2Ax immunostaining (foci formation); assay type: cell-based, Human
Description: as §6, §7

`CC[C@H](C)[C@@H]([C@@H](CC(=O)N1CCC[C@H]1[C@H](OC)[C@@H](C)C(=O)N[C@H](C)[C@@H](O)c1ccccc1)OC)N(C)C(=O)[C@@H](NC(=O)[C@@H](NC)C(C)C)C(C)C` [MMAE, monomethyl auristatin E] (H-[NMeV]V[Dil][Dolaproine]-X1) was tested, and the IC50 (HCT-116 cells [1]; 72 hours exposure (Example 3), read-out: IC50) was 1.7 nM, the IC50 (HCT-116 cells [1]; 72 hours exposure, read-out: IC50) was 1.66 nM and the IC50 (HCT-116 cells [1]; MMAE alone, no IR (Example 3), read-out: IC50 for MMAE) was 1.6 nM. The IC50 (HCT-116 cells [1]; MMAE alone, no IR, continuous exposure, viability 72 hours after initiation, read-out: IC50 for MMAE) was 1.58 nM, the IC50 (HCT-116 cells [1]; MMAE and 6 Gy IR (Example 3), read-out: IC50 for MMAE) was 0.8 nM and the IC50 (HCT-116 cells [1]; MMAE overnight then 6 Gy IR, continuous exposure, viability at 72 hours, read-out: IC50 for MMAE) was 0.78 nM. For the same compound, the IC50 (LN-229 cells) was 3.8 nM, the “clonogenic survival curve vs vehicle” value (PANC-1 cells [2]; 2 nM MMAE overnight, then irradiated, re-plated drug free) was “loss of the shoulder region of the survival curve at 2 Gy; also recorded: increased tumor cell kill at doses as low as 2 Gy” and the colony formation (PANC-1 cells [2]; 5 nM MMAE) was “Too few colonies formed”. The “surviving fraction at 2 Gy (SF2) vs vehicle” value (PANC-1 cells [2]; 1 or 2 nM MMAE overnight, 2 Gy) was “significantly reduced”, the “surviving fraction at 2 Gy (SF2) vs vehicle” value (HCT-116 cells [3]; 1 nM MMAE overnight) was “not significantly different” and the “clonogenic survival curve vs vehicle” value (HCT-116 cells [3]; 5 nM MMAE overnight, then irradiated, re-plated drug free) was “loss of the shoulder region of the survival curve at 2 Gy; also recorded: increased tumor cell kill at doses as low as 2 Gy”. The “surviving fraction at 2 Gy (SF2) vs vehicle” value (HCT-116 cells [3]; 2 and 5 nM MMAE overnight) was “significant reduction”, the “V(end)/V(0) ≤ 1, PANC-1, expt 1” value (PANC-1 tumor xenografts; day 30, + IR) was 0% and the “V(end)/V(0) ≤ 1, PANC-1, expt 1” value (PANC-1 tumor xenografts; day 30, no IR) was 0%. The “tumor xenografts smaller than starting tumor volume” value (PANC-1 tumor xenografts; expt 1, day 20, no IR) was “None”, the “tumor xenografts less than or equal to starting tumor volume” value (PANC-1 tumor xenografts; expt 1, day 20, with IR) was 4/10 and the “tumor regression vs IR or free MMAE alone” value (PANC-1 tumor xenografts; expt 1: 6 nmoles days 0 and 1 plus IR 3 Gy days 1 and 2, listed as free MMAE) was “increased tumor xenograft regression; also recorded: profound tumor xenograft regression”. For the same compound, the “average tumor volume relative to untreated controls” value (PANC-1 tumor xenografts; expt 1: iv days 0 and 1, 6 nmoles/day, no IR, day 30) was 75%, the “tumor growth vs untreated control” value (PANC-1 tumor xenografts; expt 1: iv days 0 and 1, 6 nmoles/day, no IR, listed as free MMAE) was “modest, but statistically significant growth delay; also recorded: small but statistically significant growth delay” and the “tumor growth, non-irradiated tumors” value (CAL-27 tumor xenografts) was “delayed tumor growth”. The “CHK1 activation in irradiated cells” value (CHK1 (pS345)) was “enhanced CHK1 activation”, the accumulation of cyclins (cyclin B) was “specific accumulation of the G2-M cyclin B” and the “apoptosis, IR combined with MMAE vs MMAE” value (HCT-116 cells [4]; MMAE 24 hours then IR, collected 24 hours after IR) was “no further increase in apoptosis”. For the same compound, the apoptosis vs vehicle (HCT-116 cells [4]; MMAE alone, 24 hours) was “significant increase in apoptosis”, the “γH2AX foci formation vs IR alone” value (PANC-1 cells [5]; MMAE pre-treatment, then IR) was “further significant enhancement; also recorded: significantly increased” and the “γH2AX staining vs vehicle” value (PANC-1 cells [5]; non-irradiated cells) was “did not significantly increase; also recorded: did not alter DNA damage”. The “γH2AX foci formation vs IR alone” value (HCT-116 cells [6]; MMAE pre-treatment, then IR) was “also seen in HCT-116 cells; also recorded: significantly increased” and the “DNA damage (γH2AX)” value (HCT-116 cells [6]; nonirradiated cells) was “did not alter DNA damage”.
